Measurements from patent US20020035061A1, “COMPOSITIONS AND METHODS FOR TREATING INFECTIONS USING CATIONIC PEPTIDES ALONE OR IN COMBINATION WITH ANTIBIOTICS” (priority 1996, published 2002).
Peptide text beside a SMILES is read from it.

Experiments:
Assay in all cases: microbe, parasite or virus in culture
Type in all cases: cell-based
bacterial isolates = conditions: for Peptide MIC Alone: Tobramycin section
[1] = system: inherently resistant microorganisms
[2] = system: microorganisms with acquired resistance; conditions: for Peptide MIC: in µg/mL
[3] = system: vancomycin / teicoplanin resistant enterococci
S. aureus = S. aureus SA25
[4] = S. aureus SA014 (also SA014 MRSA)
[5] = S. aureus SA025 (also SA025 MRSA)

CC[C@H](C)[C@H](NC(=O)[C@H](C)NC(=O)[C@@H]1CCCN1C(=O)CNC(=O)[C@H](C)NC(=O)[C@@H](NC(=O)[C@H](CCCCN)NC(=O)[C@H](CC(C)C)NC(=O)CNC(=O)[C@H](CO)NC(=O)[C@H](CC(C)C)NC(=O)[C@@H](NC(=O)[C@H](CCCNC(=N)N)NC(=O)[C@H](CCCNC(=N)N)NC(=O)[C@H](Cc1c[nH]c2ccccc12)NC(=O)[C@H](Cc1c[nH]c2ccccc12)NC(=O)[C@H](CCCCN)NC(=O)[C@@H](N)CCCCN)C(C)C)[C@@H](C)O)C(=O)N[C@@H](CCC(N)=O)C(=O)N[C@@H](CO)C(=O)N[C@H](C(=O)N[C@@H](CC(C)C)C(=O)N[C@@H](CC(N)=O)C(=O)N[C@@H](CCCCN)C(=O)O)C(C)C [MBI 21A1] (H-KKWWRRVLSGLKTAGPAIQSVLNK-OH; N-terminus and C-terminus assumed)
Peptide MIC + Tobramycin (bacterial isolates; B. cepacia BC001): 0.25 µg/mL
Tobramycin MIC + Peptide (bacterial isolates; B. cepacia BC001): 32 µg/mL
Peptide MIC Alone (bacterial isolates; B. cepacia BC001): >128 µg/mL
Mupirocin MIC + Peptide (bacterial isolates; E. coli ECO3): 3 µg/mL
Peptide MIC + Mupirocin (bacterial isolates; E. coli ECO3): 2 µg/mL
Mupirocin MIC + Peptide (bacterial isolates; E. coli SBECO2): 30 µg/mL
Peptide MIC + Mupirocin (bacterial isolates; E. coli SBECO2): 2 µg/mL
Peptide MIC + Vancomycin (bacterial isolates; E. faecalis EFS007): 1 µg/mL
Vancomycin MIC + Peptide (bacterial isolates; E. faecalis EFS007): 1 µg/mL
Peptide MIC + Vancomycin (bacterial isolates; E. faecalis EFS012): 1 µg/mL
Vancomycin MIC + Peptide (bacterial isolates; E. faecalis EFS012): 16 µg/mL
Peptide MIC + Vancomycin (bacterial isolates; E. faecalis EFS013): 1 µg/mL
Vancomycin MIC + Peptide (bacterial isolates; E. faecalis EFS013): 32 µg/mL
Peptide MIC + Vancomycin (bacterial isolates; E. faecium EFM010): 2 µg/mL
Vancomycin MIC + Peptide (bacterial isolates; E. faecium EFM010): 32 µg/mL
Ciprofloxacin MIC + Peptide (bacterial isolates; P. aeruginosa PA4): 0.125 µg/mL
Peptide MIC + Ciprofloxacin (bacterial isolates; P. aeruginosa PA4): 32 µg/mL
Peptide MIC + Tobramycin (bacterial isolates; P. aeruginosa PA022): 0.125 µg/mL
Tobramycin MIC + Peptide (bacterial isolates; P. aeruginosa PA022): 4 µg/mL
Peptide MIC Alone (bacterial isolates; P. aeruginosa PA022): 4 µg/mL
Peptide MIC + Tobramycin (bacterial isolates; P. aeruginosa PA026): 0.125 µg/mL
Tobramycin MIC + Peptide (bacterial isolates; P. aeruginosa PA026): 4 µg/mL
Peptide MIC Alone (bacterial isolates; P. aeruginosa PA026): 16 µg/mL
Ciprofloxacin MIC + Peptide (bacterial isolates; P. aeruginosa PA41): 1 µg/mL
Peptide MIC + Ciprofloxacin (bacterial isolates; P. aeruginosa PA41): 4 µg/mL
Mupirocin MIC + Peptide (bacterial isolates; P. aeruginosa SBPA1): 30 µg/mL
Peptide MIC + Mupirocin (bacterial isolates; P. aeruginosa SBPA1): 32 µg/mL
Peptide MIC + Tobramycin (bacterial isolates; [4]): 16 µg/mL
Tobramycin MIC + Peptide (bacterial isolates; [4]): 0.125 µg/mL
Peptide MIC Alone (bacterial isolates; [4]): 32 µg/mL
Ciprofloxacin MIC + Peptide (bacterial isolates; S. aureus SA25): 0.125 µg/mL
Peptide MIC + Ciprofloxacin (bacterial isolates; S. aureus SA25): 4 µg/mL
Peptide MIC + Tobramycin (bacterial isolates; [5]): 1 µg/mL
Tobramycin MIC + Peptide (bacterial isolates; [5]): 0.125 µg/mL
Peptide MIC Alone (bacterial isolates; [5]): 2 µg/mL
Ciprofloxacin MIC + Peptide (bacterial isolates; S. aureus SA93): 8 µg/mL
Peptide MIC + Ciprofloxacin (bacterial isolates; S. aureus SA93): 1 µg/mL
Peptide MIC + Tobramycin (bacterial isolates; S. haemolyticus SHA001): 4 µg/mL
Tobramycin MIC + Peptide (bacterial isolates; S. haemolyticus SHA001): 0.5 µg/mL
Peptide MIC Alone (bacterial isolates; S. haemolyticus SHA001): 16 µg/mL
Peptide MIC + Tobramycin (bacterial isolates; S. haemolyticus SHA005): 4 µg/mL
Tobramycin MIC + Peptide (bacterial isolates; S. haemolyticus SHA005): 1 µg/mL
Peptide MIC Alone (bacterial isolates; S. haemolyticus SHA005): 32 µg/mL
Peptide MIC + Tobramycin (bacterial isolates; S. maltophilia SMA029): 32 µg/mL
Tobramycin MIC + Peptide (bacterial isolates; S. maltophilia SMA029): 4 µg/mL
Peptide MIC Alone (bacterial isolates; S. maltophilia SMA029): 128 µg/mL
Peptide MIC + Tobramycin (bacterial isolates; S. maltophilia SMA030): 32 µg/mL
Tobramycin MIC + Peptide (bacterial isolates; S. maltophilia SMA030): 4 µg/mL
Peptide MIC Alone (bacterial isolates; S. maltophilia SMA030): >128 µg/mL
FIC (bacterial isolates; peptide + Ciprofloxacin, P. aeruginosa PA4): 0.50
FIC (bacterial isolates; peptide + Ciprofloxacin, P. aeruginosa PA41): 0.50
FIC (bacterial isolates; peptide + Ciprofloxacin, S. aureus SA25): 0.16
FIC (bacterial isolates; peptide + Ciprofloxacin, S. aureus SA93): 0.50
FIC (bacterial isolates; peptide + Mupirocin, E. coli ECO3): 0.28
FIC (bacterial isolates; peptide + Mupirocin, E. coli SBECO2): 0.28
FIC (bacterial isolates; peptide + Mupirocin, P. aeruginosa SBPA1): 0.53
FIC (bacterial isolates; peptide + Tobramycin, B. cepacia BC001): 0.25
FIC (bacterial isolates; peptide + Tobramycin, P. aeruginosa PA022): 0.53
FIC (bacterial isolates; peptide + Tobramycin, P. aeruginosa PA026): 0.51
FIC (bacterial isolates; peptide + Tobramycin, S. aureus SA014 (also SA014 MRSA)): 0.50
FIC (bacterial isolates; peptide + Tobramycin, S. aureus SA025 (also SA025 MRSA)): 0.50
FIC (bacterial isolates; peptide + Tobramycin, S. haemolyticus SHA001): 0.50
FIC (bacterial isolates; peptide + Tobramycin, S. haemolyticus SHA005): 0.38
FIC (bacterial isolates; peptide + Tobramycin, S. maltophilia SMA029): 0.28
FIC (bacterial isolates; peptide + Tobramycin, S. maltophilia SMA030): 0.16
FIC (bacterial isolates; peptide + Vancomycin, E. faecalis EFS007): 0.56
FIC (bacterial isolates; peptide + Vancomycin, E. faecalis EFS012): 0.16
FIC (bacterial isolates; peptide + Vancomycin, E. faecalis EFS013): 0.28
FIC (bacterial isolates; peptide + Vancomycin, E. faecium EFM010): 0.56
Peptide MIC Alone ([1]; E. coli, Mupirocin section): 2 µg/mL
FIC ([1]; peptide + Tobramycin, S. aureus): 0.50
Peptide MIC + Tobramycin ([2]; P. aeruginosa PA022): 0.125 µg/mL
Tobramycin MIC + Peptide ([2]; P. aeruginosa PA022): 4 µg/mL
Peptide MIC Alone ([2]; P. aeruginosa PA022, Tobramycin section): 4 µg/mL
Peptide MIC + Tobramycin ([2]; P. aeruginosa PA026): 0.125 µg/mL
Tobramycin MIC + Peptide ([2]; P. aeruginosa PA026): 4 µg/mL
Peptide MIC Alone ([2]; P. aeruginosa PA026, Tobramycin section): 16 µg/mL
Peptide MIC + Tobramycin ([2]; P. aeruginosa PA030): 8 µg/mL
Tobramycin MIC + Peptide ([2]; P. aeruginosa PA030): 0.25 µg/mL
Peptide MIC Alone ([2]; P. aeruginosa PA030, Tobramycin section): 16 µg/mL
Peptide MIC + Tobramycin ([2]; P. aeruginosa PA032): 32 µg/mL
Tobramycin MIC + Peptide ([2]; P. aeruginosa PA032): 1 µg/mL
Peptide MIC Alone ([2]; P. aeruginosa PA032, Tobramycin section): 64 µg/mL
Ciprofloxacin MIC + Peptide ([2]; P. aeruginosa PA41): 1 µg/mL
Peptide MIC + Ciprofloxacin ([2]; P. aeruginosa PA41): 4 µg/mL
Peptide MIC Alone ([2]; P. aeruginosa PA41, Ciprofloxacin section): 16 µg/mL
Ciprofloxacin MIC + Peptide ([2]; P. aeruginosa PA77): 1 µg/mL
Peptide MIC + Ciprofloxacin ([2]; P. aeruginosa PA77): 16 µg/mL
Peptide MIC Alone ([2]; P. aeruginosa PA77, Ciprofloxacin section): 32 µg/mL
Peptide MIC ([2]; P. aeruginosa, combination with Ciprofloxacin): 16
Peptide MIC ([2]; S. aureus, combination with Ciprofloxacin): 2
Peptide MIC ([2]; S. aureus, combination with Mupirocin): 16
Peptide MIC + Tobramycin ([2]; S. maltophilia SMA029): 32 µg/mL
Tobramycin MIC + Peptide ([2]; S. maltophilia SMA029): 4 µg/mL
Peptide MIC Alone ([2]; S. maltophilia SMA029, Tobramycin section): 128 µg/mL
Peptide MIC + Tobramycin ([2]; S. maltophilia SMA030): 32 µg/mL
Tobramycin MIC + Peptide ([2]; S. maltophilia SMA030): 4 µg/mL
Peptide MIC Alone ([2]; S. maltophilia SMA030, Tobramycin section): >128 µg/mL
Peptide MIC + Vancomycin ([3]; E. faecalis EFS012): 2 µg/mL
Vancomycin MIC + Peptide ([3]; E. faecalis EFS012): 4 µg/mL
Peptide MIC + Vancomycin ([3]; E. faecalis EFS013): 2 µg/mL
Vancomycin MIC + Peptide ([3]; E. faecalis EFS013): 4 µg/mL
Vancomycin MIC + Peptide ([3]; in combination with the labelled peptide, E. faecium EFM010): 4 µg/mL
Peptide MIC + Vancomycin ([3]; in combination with vancomycin, E. faecium EFM010): 16 µg/mL
Ciprofloxacin MIC + Peptide (S. aureus): 0.125 µg/mL
Peptide MIC + Ciprofloxacin (S. aureus): 4 µg/mL
